pEC50: −log10 of the molar value.

This note sets out measurements from patent US20260048047A1, “SMALL-MOLECULE ACTIVATORS OF MYCOBACTERIUM TUBERCULOSIS ADENYLYL CYCLASE” (priority 2022, published 2026).

In the assay the test system is M. tuberculosis. In words: Extracellular activity against M. tuberculosis in cholesterol media (Alamar Blue reduction assay). The class given is cell-based, Mycobacterium tuberculosis. The following applies: Mycobacterium tuberculosis, 240 h, 7H12-Cholesterol media, 10 days; read-out: Cholesterol broth: alamar blue--EC50.
As a reminder, the pEC50 is the negative decadic logarithm of the EC50, by convention in mol/L. In the case of `Cc1noc(CC(=O)N2CCC(n3nnc(-c4ccc(Cl)cc4)n3)CC2)n1` [Compound 35, 1-(4-(5-(4-chlorophenyl)-2H-tetrazol-2-yl)piperidin-1-yl)-2-(3-methyl-1,2,4-oxadiazol-5-yl)ethan-1-one], the pEC50 was 5.97.
For the compound `Cc1noc(CC(=O)N2CCC(c3nc(-c4cccc(Cl)c4)no3)CC2)n1` [Compound 36, 1-(4-(3-(3-chlorophenyl)-1,2,4-oxadiazol-5-yl)piperidin-1-yl)-2-(3-methyl-1,2,4-oxadiazol-5-yl)ethan-1-one], the negative-log EC50 (pEC50) is 5.79.
`Cc1noc(CC(=O)N2CCC(c3nc(C4CCC(C(F)(F)F)CC4)no3)CC2)n1` (centres unmarked) [Compound 37, 2-(3-methyl-1,2,4-oxadiazol-5-yl)-1-(4-(3-(4-(trifluoromethyl)cyclohexyl)-1,2,4-oxadiazol-5-yl)piperidin-1-yl)ethan-1-one]: the negative-log EC50 (pEC50) was 5.15.
In the case of `Cc1noc(CC(=O)N2CCC(c3nc(-c4ccc(Cl)c(OC(F)(F)F)c4)no3)CC2)n1` [Compound 38], the negative-log EC50 (pEC50) was 5.98.
For `Cc1noc(CC(=O)N2CCC(c3nc(-c4ccc(OC(F)(F)F)cc4)no3)CC2)n1` [Compound 39, 2-(3-methyl-1,2,4-oxadiazol-5-yl)-1-(4-(3-(4-(trifluoromethoxy)phenyl)-1,2,4-oxadiazol-5-yl)piperidin-1-yl)ethan-1-one], the negative logarithm of the EC50 (pEC50) is 6.18.
The value for `Cc1noc(CC(=O)N2CCC(c3nc(C4CCC(F)(F)C4)no3)CC2)n1` (centres unmarked) [Compound 40, 1-(4-(3-(3,3-difluorocyclopentyl)-1,2,4-oxadiazol-5-yl)piperidin-1-yl)-2-(3-methyl-1,2,4-oxadiazol-5-yl)ethan-1-one] was less than 4.60; that for `Cc1noc(CC(=O)N2CCC(c3nc(C4CCC(F)(F)CC4)no3)CC2)n1` [Compound 41, 1-(4-(3-(4,4-difluorocyclohexyl)-1,2,4-oxadiazol-5-yl)piperidin-1-yl)-2-(3-methyl-1,2,4-oxadiazol-5-yl)ethan-1-one] was less than 5.00.
Turning to `Cc1noc(CC(=O)N2CCC(O)(c3nc(C4CCC(F)(F)CC4)no3)CC2)n1` [Compound 42, 1-(4-(3-(4,4-difluorocyclohexyl)-1,2,4-oxadiazol-5-yl)-4-hydroxypiperidin-1-yl)-2-(3-methyl-1,2,4-oxadiazol-5-yl)ethan-1-one], the pEC50 is less than 5.00.
Turning to `Cc1noc(CC(=O)N2CCC(c3noc(C45CC(F)(C4)C5)n3)CC2)n1` [Compound 43, 1-(4-(5-(3-fluorobicyclo[1.1.1]pentan-1-yl)-1,2,4-oxadiazol-3-yl)piperidin-1-yl)-2-(3-methyl-1,2,4-oxadiazol-5-yl)ethan-1-one], the pEC50 is less than 4.60.
Consider `Cc1noc(CC(=O)N2CCC(c3nc(-c4ccc(Cl)c(F)c4)no3)CC2)n1` [Compound 44, 1-(4-(3-(4-chloro-3-fluorophenyl)-1,2,4-oxadiazol-5-yl)piperidin-1-yl)-2-(3-methyl-1,2,4-oxadiazol-5-yl)ethan-1-one], for which the negative logarithm of the EC50 (pEC50) was 6.64.
For the compound `Cc1noc(CC(=O)N2CCC(c3nc(-c4cc(F)cc(Cl)c4)no3)CC2)n1` [Compound 45, 1-(4-(3-(3-chloro-5-fluorophenyl)-1,2,4-oxadiazol-5-yl)piperidin-1-yl)-2-(3-methyl-1,2,4-oxadiazol-5-yl)ethan-1-one], the pEC50 is 5.66.
With `Cc1noc(CC(=O)N2CCC(c3nc(-c4ccc(F)cc4Cl)no3)CC2)n1` [Compound 46, 1-(4-(3-(2-chloro-4-fluorophenyl)-1,2,4-oxadiazol-5-yl)piperidin-1-yl)-2-(3-methyl-1,2,4-oxadiazol-5-yl)ethan-1-one], the negative-log EC50 (pEC50) was 5.53.
In the case of `Cc1noc(CC(=O)N2CCC(c3nc(-c4ccc(F)c(F)c4)no3)CC2)n1` [Compound 47, 1-(4-(3-(3,4-difluorophenyl)-1,2,4-oxadiazol-5-yl)piperidin-1-yl)-2-(3-methyl-1,2,4-oxadiazol-5-yl)ethan-1-one], the pEC50 was 5.84.
Turning to `Cc1noc(CC(=O)N2CCC(c3nc(-c4ccc(F)c(OC(F)(F)F)c4)no3)CC2)n1` [Compound 48, 1-(4-(3-(4-fluoro-3-(trifluoromethoxy)phenyl)-1,2,4-oxadiazol-5-yl)piperidin-1-yl)-2-(3-methyl-1,2,4-oxadiazol-5-yl)ethan-1-one], the pEC50 was 6.14.
For the compound `Cc1noc(CC(=O)N2CCC(c3nc(-c4ccc(F)cc4)no3)CC2)n1` [Compound 49, 1-(4-(3-(4-fluorophenyl)-1,2,4-oxadiazol-5-yl)piperidin-1-yl)-2-(3-methyl-1,2,4-oxadiazol-5-yl)ethan-1-one], the negative logarithm of the EC50 (pEC50) is 5.84.
Take `Cc1noc(CC(=O)N2CCC(c3cc(-c4ccc(F)cc4)no3)CC2)n1` [Compound 50, 1-(4-(3-(4-fluorophenyl)isoxazol-5-yl)piperidin-1-yl)-2-(3-methyl-1,2,4-oxadiazol-5-yl)ethan-1-one]: the negative-log EC50 (pEC50) was less than 5.00.
Take `Cc1noc(CC(=O)N2CCC(n3nnc(-c4ccc(F)cc4)n3)CC2)n1` [Compound 51, 1-(4-(5-(4-fluorophenyl)-2H-tetrazol-2-yl)piperidin-1-yl)-2-(3-methyl-1,2,4-oxadiazol-5-yl)ethan-1-one]: the negative logarithm of the EC50 (pEC50) is 5.12.
For the compound `Cc1noc(CC(=O)N2CCC(c3nc(-c4ccc(F)cc4)co3)CC2)n1` [Compound 52, 1-(4-(4-(4-fluorophenyl)oxazol-2-yl)piperidin-1-yl)-2-(3-methyl-1,2,4-oxadiazol-5-yl)ethan-1-one], the negative-log EC50 (pEC50) is less than 5.00.
Regarding `Cc1noc(CC(=O)N2CCC(c3noc(-c4ccc(F)cc4)n3)CC2)n1` [Compound 53, 1-(4-(5-(4-fluorophenyl)-1,2,4-oxadiazol-3-yl)piperidin-1-yl)-2-(3-methyl-1,2,4-oxadiazol-5-yl)ethan-1-one], the pEC50 is less than 5.00.
For the compound `Cc1noc(CC(=O)N2CCC(O)(c3nc(-c4ccc(F)cc4)no3)CC2)n1` [Compound 54, 1-(4-(3-(4-fluorophenyl)-1,2,4-oxadiazol-5-yl)-4-hydroxypiperidin-1-yl)-2-(3-methyl-1,2,4-oxadiazol-5-yl)ethan-1-one], the negative logarithm of the EC50 (pEC50) is less than 5.00.
With `Cc1nocc1CC(=O)N1CCC(c2nc(C3CCCCC3)no2)CC1` [Compound 55, 1-(4-(3-cyclohexyl-1,2,4-oxadiazol-5-yl)piperidin-1-yl)-2-(3-methylisoxazol-4-yl)ethan-1-one], the negative-log EC50 (pEC50) is less than 4.60.
The value for `Cc1nocc1CC(=O)N1CCC(n2nnc(C3CCCCC3)n2)CC1` [Compound 56, 1-(4-(5-cyclohexyl-2H-tetrazol-2-yl)piperidin-1-yl)-2-(3-methylisoxazol-4-yl)ethan-1-one] was less than 4.60; that for `Cc1nocc1CC(=O)N1CCC(c2nc(-c3ccc(Cl)c(Cl)c3)no2)CC1` [Compound 57, 1-(4-(3-(3,4-dichlorophenyl)-1,2,4-oxadiazol-5-yl)piperidin-1-yl)-2-(3-methylisoxazol-4-yl)ethan-1-one] was 6.16; that for `Cc1nocc1CC(=O)N1CCC(c2nc(-c3ccc(F)cc3)no2)CC1` [Compound 58, 1-(4-(3-(4-fluorophenyl)-1,2,4-oxadiazol-5-yl)piperidin-1-yl)-2-(3-methylisoxazol-4-yl)ethan-1-one] was 5.67.
Consider `Cc1nonc1CC(=O)N1CCC(n2cc(C(=O)N3CCOCC3)nn2)CC1` [Compound 60, 2-(4-methyl-1,2,5-oxadiazol-3-yl)-1-(4-(4-(morpholine-4-carbonyl)-1H-1,2,3-triazol-1-yl)piperidin-1-yl)ethan-1-one], for which the negative-log EC50 (pEC50) was less than 5.00.
The figure for `Cc1nonc1CC(=O)N1CCC(c2nc(C3CC3)no2)CC1` [Compound 61, 1-(4-(3-cyclopropyl-1,2,4-oxadiazol-5-yl)piperidin-1-yl)-2-(4-methyl-1,2,5-oxadiazol-3-yl)ethan-1-one] is less than 5.00; for `Cc1nonc1CC(=O)N1CCC(n2nnc(C3CC3)n2)CC1` [Compound 62, 1-(4-(5-cyclopropyl-2H-tetrazol-2-yl)piperidin-1-yl)-2-(4-methyl-1,2,5-oxadiazol-3-yl)ethan-1-one] it is no more than 5.00; for `Cc1nonc1CC(=O)N1CCC(c2nc(C3CC4CCC3C4)no2)CC1` (centres unmarked) [Compound 64, 1-(4-(3-(bicyclo[2.2.1]heptan-2-yl)-1,2,4-oxadiazol-5-yl)piperidin-1-yl)-2-(4-methyl-1,2,5-oxadiazol-3-yl)ethan-1-one] it is 6.35.
The figure for `Cc1nonc1CC(=O)N1CCC(c2noc(C3CC34CCC4)n2)CC1` (centres unmarked) [Compound 65, 2-(4-methyl-1,2,5-oxadiazol-3-yl)-1-(4-(5-(spiro[2.3]hexan-1-yl)-1,2,4-oxadiazol-3-yl)piperidin-1-yl)ethan-1-one] is 4.82; for `Cc1nonc1CC(=O)N1CCC(c2nc(C3CCC3)no2)CC1` [Compound 66, 1-(4-(3-cyclobutyl-1,2,4-oxadiazol-5-yl)piperidin-1-yl)-2-(4-methyl-1,2,5-oxadiazol-3-yl)ethan-1-one] it is less than 4.60; for `Cc1nonc1CC(=O)N1CCC(c2nc(C3CCC4(CC3)OCCO4)no2)CC1` [Compound 67, 1-(4-(3-(1,4-dioxaspiro[4.5]decan-8-yl)-1,2,4-oxadiazol-5-yl)piperidin-1-yl)-2-(4-methyl-1,2,5-oxadiazol-3-yl)ethan-1-one] it is less than 5.00.
The value for `Cc1nonc1CC(=O)N1CCC(c2nc(C3CCC4(CC3)CC4)no2)CC1` [Compound 68, 2-(4-methyl-1,2,5-oxadiazol-3-yl)-1-(4-(3-(spiro[2.5]octan-6-yl)-1,2,4-oxadiazol-5-yl)piperidin-1-yl)ethan-1-one] was 5.73.
For `Cc1nonc1CC(=O)N1CCC(c2noc(C3CCC4(CC3)CC4)n2)CC1` [Compound 69, 2-(4-methyl-1,2,5-oxadiazol-3-yl)-1-(4-(5-(spiro[2.5]octan-6-yl)-1,2,4-oxadiazol-3-yl)piperidin-1-yl)ethan-1-one], the pEC50 was less than 4.60.
For `Cc1nonc1CC(=O)N1CCC(c2nc(C3CCCC3)no2)CC1` [Compound 70, 1-(4-(3-cyclopentyl-1,2,4-oxadiazol-5-yl)piperidin-1-yl)-2-(4-methyl-1,2,5-oxadiazol-3-yl)ethan-1-one], the pEC50 is 5.43.
For `Cc1nonc1CC(=O)N1CCC(n2nnc(C3CCCC3)n2)CC1` [Compound 71, 1-(4-(5-cyclopentyl-2H-tetrazol-2-yl)piperidin-1-yl)-2-(4-methyl-1,2,5-oxadiazol-3-yl)ethan-1-one], the negative-log EC50 (pEC50) was less than 4.60.
